Read-outs that look alike come from different tables or passages of the source.
Assays:
TRKA kinase = TRKA kinase (Homo sapiens (Human), UniProt P04629); assay: Assay of small molecular compounds for inhibiting the activity of TRKA kinase (LANCE TR-FRET); type: biochemical
Method in brief: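 TRKA (supplied as 2 nM 2× solution) was pre-reacted with compounds for 5 min at room temperature before a 4× ULight-TK peptide/ATP mix (400 nM/40 μM) started the 60-min dark reaction at 1% DMSO. After stop and 60-min detection, TR-FRET was read.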

MER kinase = MER kinase (Homo sapiens (Human), UniProt Q12866); assay: Assay of small molecular compounds for inhibiting the activity of MER kinase (LANCE TR-FRET); type: biochemical
Method in brief: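 LANCE TR-FRET readout of ULight-poly GT phosphorylation by MER kinase; compound final range 0.042-2500 nM, 3-fold steps, 5 min enzyme preincubation. Reaction 60 min at room temperature in the dark with substrate/ATP (4× at 200 nM/20 μM), 1% DMSO, then stopped and developed 60 min; IC50 by curve fit.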

Ba/F3 LMNA-NTRK1 cells = assay: Assay for inhibiting the proliferation of Ba/F3 LMNA-NTRK1 cells (CCK-8); type: cell-based
Method in brief: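 Viability was read as absorbance at 450 nm following 1–2 h CCK-8 incubation at 37 °C, relative to control and blank wells.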

Chain of TRKA kinase (P04629 33-796): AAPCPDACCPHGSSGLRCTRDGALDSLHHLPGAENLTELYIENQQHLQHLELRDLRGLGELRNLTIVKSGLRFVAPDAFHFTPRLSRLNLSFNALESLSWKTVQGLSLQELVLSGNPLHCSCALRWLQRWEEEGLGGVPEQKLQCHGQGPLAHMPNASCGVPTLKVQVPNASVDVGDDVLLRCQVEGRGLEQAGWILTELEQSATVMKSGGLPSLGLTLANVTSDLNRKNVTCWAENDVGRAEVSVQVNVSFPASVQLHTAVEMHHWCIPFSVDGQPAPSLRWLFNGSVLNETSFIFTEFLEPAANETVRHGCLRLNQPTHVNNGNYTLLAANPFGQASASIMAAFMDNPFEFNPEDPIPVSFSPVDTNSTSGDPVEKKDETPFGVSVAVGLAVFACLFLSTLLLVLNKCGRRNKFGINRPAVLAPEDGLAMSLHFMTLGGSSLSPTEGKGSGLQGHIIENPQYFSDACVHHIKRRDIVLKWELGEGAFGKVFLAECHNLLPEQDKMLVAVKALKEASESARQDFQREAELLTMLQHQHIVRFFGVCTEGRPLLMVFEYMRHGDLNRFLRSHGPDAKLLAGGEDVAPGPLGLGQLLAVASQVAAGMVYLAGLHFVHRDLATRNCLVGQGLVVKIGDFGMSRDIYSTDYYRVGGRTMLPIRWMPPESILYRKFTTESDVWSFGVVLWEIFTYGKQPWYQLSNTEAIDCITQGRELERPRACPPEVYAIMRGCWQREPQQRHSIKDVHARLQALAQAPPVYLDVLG
Chain of MER kinase (Q12866 21-999): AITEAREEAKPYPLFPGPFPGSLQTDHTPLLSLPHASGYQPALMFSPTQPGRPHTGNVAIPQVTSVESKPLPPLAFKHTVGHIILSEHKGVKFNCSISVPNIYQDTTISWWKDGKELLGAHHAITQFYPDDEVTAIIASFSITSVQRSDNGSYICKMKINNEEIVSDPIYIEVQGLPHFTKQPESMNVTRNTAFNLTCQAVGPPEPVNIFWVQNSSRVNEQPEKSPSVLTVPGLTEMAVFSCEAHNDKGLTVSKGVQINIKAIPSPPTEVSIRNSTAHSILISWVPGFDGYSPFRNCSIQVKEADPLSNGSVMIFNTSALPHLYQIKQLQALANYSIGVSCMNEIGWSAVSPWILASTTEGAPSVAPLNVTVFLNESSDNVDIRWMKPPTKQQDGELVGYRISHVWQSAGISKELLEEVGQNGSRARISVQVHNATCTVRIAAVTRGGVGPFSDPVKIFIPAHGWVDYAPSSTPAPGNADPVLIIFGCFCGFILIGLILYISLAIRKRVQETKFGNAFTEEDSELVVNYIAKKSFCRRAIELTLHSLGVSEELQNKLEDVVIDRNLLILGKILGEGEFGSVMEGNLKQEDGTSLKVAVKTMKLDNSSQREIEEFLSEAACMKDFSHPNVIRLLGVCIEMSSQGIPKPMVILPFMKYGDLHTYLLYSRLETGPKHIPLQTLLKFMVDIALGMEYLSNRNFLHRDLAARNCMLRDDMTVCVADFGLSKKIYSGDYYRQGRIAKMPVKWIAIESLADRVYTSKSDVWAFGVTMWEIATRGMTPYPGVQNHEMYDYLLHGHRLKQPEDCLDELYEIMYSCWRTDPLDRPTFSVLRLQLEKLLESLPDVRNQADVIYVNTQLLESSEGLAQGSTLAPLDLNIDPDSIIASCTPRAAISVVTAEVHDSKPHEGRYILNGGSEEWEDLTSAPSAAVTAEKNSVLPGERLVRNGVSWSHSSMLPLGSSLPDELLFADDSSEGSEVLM

Row | Structure (SMILES) | IC50 (TRKA kinase) [nM] | IC50 (MER kinase) [nM] | IC50 (Ba/F3 LMNA-NTRK1 cells; Mus musculus, BaF3) [nM] | IC50 (Ba/F3 LMNA-NTRK1 cells) [nM]
1 | CCOc1ccn(-c2ccc(F)cc2)c(=O)c1C(=O)Nc1ccc(Oc2ccnc3cc(OCC(C)(C)O)c4c(c23)OCCO4)c(F)c1 [Example 120, N-(3-fluoro-4-((5-(2-hydroxy-2-methylpropoxy)-2,3-dihydro-[1,4]dioxino[2,3-f]quinolin-10-yl)oxy)phenyl)-4-ethoxy-1-(4-fluorophenyl)-2-oxo-1,2-dihydropyridine-3-carboxamide] | < 50 | ≤ 50 | < 50 | –
2 | CCOc1ccn(-c2ccc(F)cc2)c(=O)c1C(=O)Nc1ccc(Oc2ccnc3cc(OCCCN4CCCCC4)c4c(c23)OCCO4)cc1Cl [Example 138, N-(2-chloro-4-((5-((3-piperidin-1-yl)propoxy)-2,3-dihydro-[1,4]dioxino[2,3-f]quinolin-10-yl)oxy)phenyl)-1-(4-fluorophenyl)-4-ethoxy-2-oxo-1,2-dihydropyridine-3-carboxamide] | < 50 | ≤ 50 | < 50 | –
3 | COCCN(C)CCCOc1cc2nccc(Oc3ccc(NC(=O)c4cn(C(C)C)c(=O)n(-c5ccc(F)cc5)c4=O)cc3F)c2c2c1OCCO2 [Example 95, N-(3-fluoro-4-((5-(3-((2-methoxyethyl)(methyl)amino)propoxy)-2,3-dihydro-[1,4]dioxino[2,3-f]quinolin-10-yl)oxy)phenyl)-3-(4-fluorophenyl)-1-isopropyl-2,4-dioxo-1,2,3,4-tetrahydropyrimidine-5-carboxamide] | < 50 | ≤ 50 | 50 to 200 | –
4 | CCOc1cc2nccc(Oc3ccc(NC(=O)c4cccn(-c5ccc(F)cc5)c4=O)c(Cl)c3)c2c2c1OCCO2 [Example 127, N-(2-chloro-4-((5-ethoxy-2,3-dihydro-[1,4]dioxino[2,3-f]quinolin-10-yl)oxy)phenyl)-1-(4-fluorophenyl)-2-oxo-1,2-dihydropyridine-3-carboxamide] | < 50 | ≤ 50 | < 50 | –
5 | COc1cn(-c2ccc(F)cc2C)nc1C(=O)Nc1ccc(Oc2ccnc3cc(OCCCN4CCOCC4)c4c(c23)OCCO4)c(F)c1 [Example 27, 1-(4-fluoro-2-methylphenyl)-N-(3-fluoro-4-((5-(3-morpholinopropoxy)-2,3-dihydro-[1,4]dioxino[2,3-f]quinolin-10-yl)oxy)phenyl)-4-methoxy-1H-pyrazole-3-carboxamide] | < 50 | ≤ 50 | < 50 | –
6 | COc1ccn(-c2ccc(F)cc2)c(=O)c1C(=O)Nc1ccc(Oc2ccnc3cc(OCCCC#N)c4c(c23)OCCO4)cc1Cl [Example 132, N-(2-chloro-4-((5-(3-cyanopropoxy)-2,3-dihydro-[1,4]dioxino[2,3-f]quinolin-10-yl)oxy)phenyl)-1-(4-fluorophenyl)-4-methoxy-2-oxo-1,2-dihydropyridine-3-carboxamide] | < 50 | ≤ 50 | < 50 | –
7 | COc1cc2nccc(Oc3ccc(NC(=O)c4cccn(-c5ccc(F)cc5)c4=O)cc3F)c2c2c1OCCO2 [Example 17, N-(3-fluoro-4-((5-methoxy-2,3-dihydro-[1,4]dioxino[2,3-f]quinolin-10-yl)oxy)phenyl)-1-(4-fluorophenyl)-2-oxo-1,2-dihydropyridine-3-carboxamide] | < 50 | ≤ 50 | < 50 | –
8 | Cn1cc(C(=O)Nc2ccc(Oc3ccnc4ccc5c(c34)OCCO5)cc2F)c(=O)n(-c2ccc(F)cc2)c1=O [Example 162, N-(4-((2,3-dihydro-[1,4]dioxino[2,3-f]quinolin-10-yl)oxy)-2-fluorophenyl)-3-(4-fluorophenyl)-1-methyl-2,4-dioxo-1,2,3,4-tetrahydropyrimidine-5-carboxamide] | < 50 | 50 to 500 | < 50 | –
9 | CC(C)n1cc(C(=O)Nc2ccc(Oc3ccnc4cc(OCCCN(C)C5CCC5)c5c(c34)OCCO5)c(F)c2)c(=O)n(-c2ccc(F)cc2)c1=O [Example 96, N-(3-fluoro-4-((5-(3-((cyclobutyl)(methyl)amino)propoxy)-2,3-dihydro-[1,4]dioxino[2,3-f]quinolin-10-yl)oxy)phenyl)-3-(4-fluorophenyl)-1-isopropyl-2,4-dioxo-1,2,3,4-tetrahydropyrimidine-5-carboxamide] | < 50 | ≤ 50 | < 50 | –
10 | Cn1cc(C(=O)Nc2ccc(Oc3ccnc4cc(OCCCN5CCOCC5)c5c(c34)OCCO5)cc2Cl)c(=O)n(-c2ccc(F)cc2)c1=O [Example 98, N-(2-chloro-4-((5-(3-morpholinopropoxy)-2,3-dihydro-[1,4]dioxino[2,3-f]quinolin-10-yl)oxy)phenyl)-3-(4-fluorophenyl)-1-methyl-2,4-dioxo-1,2,3,4-tetrahydropyrimidine-5-carboxamide] | < 50 | ≤ 50 | < 50 | –
11 | CCOc1ccn(-c2ccc(Cl)cc2)c(=O)c1C(=O)Nc1ccc(Oc2ccnc3cc(OC)c4c(c23)OCCO4)c(F)c1 [Example 113, N-(3-fluoro-4-((5-methoxy-2,3-dihydro-[1,4]dioxino[2,3-f]quinolin-10-yl)oxy)phenyl)-2-oxo-4-ethoxy-1-(4-chlorophenyl)-1,2-dihydropyridin-3-carboxamide] | < 50 | ≤ 50 | < 50 | –

Results, then the compound that gave them:

Row | IC50 (TRKA kinase) [nM] | IC50 (MER kinase) [nM] | IC50 (Ba/F3 LMNA-NTRK1 cells; Mus musculus, BaF3) [nM] | IC50 (Ba/F3 LMNA-NTRK1 cells) [nM] | Structure (SMILES)
12 | < 50 | ≤ 50 | < 50 | – | O=C(Nc1ccc(Oc2ccnc3cc(OCCCN4CCCCC4)c4c(c23)OCCO4)cc1Cl)c1cccn(-c2ccc(F)cc2)c1=O [Example 135, N-(2-chloro-4-((5-((3-piperidin-1-yl)propoxy)-2,3-dihydro-[1,4]dioxino[2,3-f]quinolin-10-yl)oxy)phenyl)-1-(4-fluorophenyl)-2-oxo-1,2-dihydropyridine-3-carboxamide]
13 | < 50 | ≤ 50 | < 50 | – | CCOc1ccn(-c2ccc(F)cc2)c(=O)c1C(=O)Nc1ccc(Oc2ccnc3cc(OC)c4c(c23)OCCO4)cc1Cl [Example 126, N-(2-chloro-4-((5-methoxy-2,3-dihydro-[1,4]dioxino[2,3-f]quinolin-10-yl)oxy)phenyl)-1-(4-fluorophenyl)-4-ethoxy-2-oxo-1,2-dihydropyridine-3-carboxamide]
14 | < 50 | ≤ 50 | < 50 | – | CCOc1ccn(-c2ccc(F)cc2)c(=O)c1C(=O)Nc1cc(F)c(Oc2ccnc3cc(OC)c4c(c23)OCCO4)cc1Cl [Example 115, N-(2-chloro-5-fluoro-4-((5-methoxy-2,3-dihydro-[1,4]dioxino[2,3-f]quinolin-10-yl)oxy)phenyl)-4-ethoxy-2-oxo-1-(4-fluorophenyl)-1,2-dihydropyridin-3-carboxamide]
15 | < 50 | ≤ 50 | – | < 50 | O=C(Nc1ccc(Oc2ccnc3cc(OCCCN4CCCCC4)c4c(c23)OCCO4)c(F)c1)c1cccn(-c2ccc(F)cc2)c1=O [Example 31, N-(3-fluoro-4-((5-(3-(piperidin-1-yl)propoxy)-2,3-dihydro-[1,4]dioxino[2,3-f]quinolin-10-yl)oxy)phenyl)-1-(4-fluorophenyl)-2-oxo-1,2-dihydropyridine-3-carboxamide]
16 | < 50 | ≤ 50 | < 50 | – | CCOc1ccn(-c2ccc(F)cc2)c(=O)c1C(=O)Nc1ccc(Oc2ncnc3cc(OCCCN4CCOCC4)c4c(c23)OCCO4)c(F)c1 [Example 6, N-(3-fluoro-4-((5-(3-morpholinopropoxy)-2,3-dihydro-[1,4]dioxino[2,3-f]quinazolin-10-yl)oxy)phenyl)-1-(4-fluorophenyl)-4-ethoxy-2-oxo-1,2-dihydropyridine-3-carboxamide]
17 | < 50 | ≤ 50 | < 50 | – | Cn1cc(C(=O)Nc2ccc(Oc3ccnc4cc(OCCCN5CCCCC5)c5c(c34)OCCO5)c(F)c2)c(=O)n(-c2ccc(F)cc2)c1=O [Example 39, N-(3-fluoro-4-((5-(3-(piperidin-1-yl)propoxy)-2,3-dihydro-[1,4]dioxino[2,3-f]quinolin-10-yl)oxy)phenyl)-3-(4-fluorophenyl)-1-methyl-2,4-dioxo-1,2,3,4-tetrahydropyrimidine-5-carboxamide]
18 | < 50 | ≤ 50 | < 50 | – | CCOc1cc2nccc(Oc3ccc(NC(=O)c4c(OC)ccn(-c5ccc(F)cc5)c4=O)c(Cl)c3)c2c2c1OCCO2 [Example 128, N-(2-chloro-4-((5-ethoxy-2,3-dihydro-[1,4]dioxino[2,3-f]quinolin-10-yl)oxy)phenyl)-1-(4-fluorophenyl)-4-methoxy-2-oxo-1,2-dihydropyridine-3-carboxamide]
19 | < 50 | ≤ 50 | < 50 | – | Cn1cc(C(=O)Nc2ccc(Oc3ncnc4cc(OCCCN5CCOCC5)c5c(c34)OCCO5)c(F)c2)c(=O)n(-c2ccc(F)cc2)c1=O [Example 30, N-(3-fluoro-4-((5-(3-morpholinopropoxy)-2,3-dihydro-[1,4]dioxino[2,3-f]quinazolin-10-yl)oxy)phenyl)-3-(4-fluorophenyl)-1-methyl-2,4-dioxo-1,2,3,4-tetrahydropyrimidine-5-carboxamide]
20 | < 50 | ≤ 50 | < 50 | – | COc1ccn(-c2ccc(F)cc2)c(=O)c1C(=O)Nc1ccc(Oc2ccnc3cc(OCCCN4CCCCC4)c4c(c23)OCCO4)c(F)c1 [Example 32, N-(3-fluoro-4-((5-(3-(piperidin-1-yl)propoxy)-2,3-dihydro-[1,4]dioxino[2,3-f]quinolin-10-yl)oxy)phenyl)-1-(4-fluorophenyl)-4-methoxy-2-oxo-1,2-dihydropyridine-3-carboxamide]

From US12202835B2, “Substituted aromatic ring-linked dioxinoquinazolines and dioxinoquinolines as kinase inhibitors” (BEIJING SCITECH-MQ PHARMACEUTICALS LIMITED, priority 2018, dated 2025)
